The NIST ThermoML archive (doi:10.1021/je9001027)

How the values were obtained:
[1] = cn = amount concentration of the nth substance listed, in mol/dm3; details: 101 kPa, Liquid
[2] = 101 kPa, Liquid
[3] = wn = mass fraction of the nth substance listed; details: 101 kPa, Liquid

[Br-].[Rb+] [rubidium bromide] + C[S+](C)[O-]
[1]
Details	mass density, 298.15 K [kg/m3]	mass density, 303.15 K [kg/m3]	mass density, 308.15 K [kg/m3]	mass density, 313.15 K [kg/m3]	mass density, 318.15 K [kg/m3]	viscosity, 298.15 K [mPa·s]	viscosity, 303.15 K [mPa·s]	viscosity, 308.15 K [mPa·s]	viscosity, 313.15 K [mPa·s]	viscosity, 318.15 K [mPa·s]
c1 = 0.011	1096.9	1092.54	1087.75	1087.75	1096.42	1.997	1.839	1.682	1.587	1.515
c1 = 0.02	1098.3	1097.71	–	1088.77	1096.52	2.019	1.861	–	1.604	1.531
c1 = 0.024	–	–	1088.77	–	–	–	–	1.701	–	–
c1 = 0.026	–	1106.91	–	–	–	–	1.877	–	–	–
c1 = 0.027	1100.1	–	1088.97	–	1096.58	2.039	–	1.712	–	1.542
c1 = 0.028	–	–	–	1089.77	–	–	–	–	1.615	–
c1 = 0.03	1100.4	1110.93	1089.97	1089.97	1096.6	2.047	1.884	1.722	1.62	1.549
c1 = 0.046	1102.5	–	–	1091.97	–	2.085	–	–	1.659	–
c1 = 0.056	–	1134.93	1091.97	–	1096.9	–	1.923	1.759	–	1.581

C[S+](C)[O-] [dimethyl sulfoxide]
[2]
Details	mass density [kg/m3]	viscosity [mPa·s]
298.15 K	1095.41	1.966
303.15 K	1090.13	1.809
308.15 K	1085.38	1.652
313.15 K	1080.58	1.559
318.15 K	1074.5	1.488

O [water] + C[S+](C)[O-]
[3], w2 = 0
Details	mass density [kg/m3]	viscosity [mPa·s]
298.15 K	–	0.89
303.15 K	–	0.8003
308.15 K	983.66	0.7591
313.15 K	–	0.6214
318.15 K	–	0.5346

C[S+](C)[O-] [dimethyl sulfoxide] + O
[3]
Details	mass density, 298.15 K [kg/m3]	mass density, 303.15 K [kg/m3]	mass density, 308.15 K [kg/m3]	mass density, 313.15 K [kg/m3]	mass density, 318.15 K [kg/m3]	viscosity, 298.15 K [mPa·s]	viscosity, 303.15 K [mPa·s]	viscosity, 308.15 K [mPa·s]	viscosity, 313.15 K [mPa·s]	viscosity, 318.15 K [mPa·s]
w1 = 0.2	1024.2	1019.7	1015.2	998.4	979.2	1.34	–	1.054	0.9572	0.8482
w1 = 0.4	1053.47	1052.47	1045.3	1040.12	1038.01	2.221	2.221	1.921	1.618	1.497
w1 = 0.5	1067.81	1062.43	1056.4	1048.28	1047.52	2.807	2.465	2.28	2.14	1.937
w1 = 0.6	1082.31	1081.11	1072.8	1065.21	1057.1	3.421	3.421	3.105	2.846	2.775
w1 = 0.7	1087.32	1084.92	1080.83	1075.23	1067.12	2.357	–	2.081	1.927	1.865
w1 = 1	1095.41	1090.13	1085.38	1080.58	1074.5	1.966	1.809	1.652	1.559	1.488

[Br-].[Rb+] [rubidium bromide] + O
[1]
Details	mass density, 298.15 K [kg/m3]	mass density, 303.15 K [kg/m3]	mass density, 308.15 K [kg/m3]	viscosity, 298.15 K [mPa·s]	viscosity, 303.15 K [mPa·s]	viscosity, 318.15 K [mPa·s]
c1 = 0.01	996.69	996.08	989.87	0.893	0.8934	0.5367
c1 = 0.013	996.84	996.08	989.89	0.8935	0.8937	0.537
c1 = 0.02	997.03	996.14	989.99	0.8953	0.8943	0.5375
c1 = 0.024	–	–	990.03	–	–	0.5378
c1 = 0.025	997.28	996.17	–	0.8962	0.8946	–
c1 = 0.034	–	–	–	–	–	0.5383
c1 = 0.035	–	–	990.13	–	–	–
c1 = 0.038	997.79	996.24	–	0.8966	0.895	–
